Measured values reported in patent EP4606801A1, “FUSED HETEROCYCLIC COMPOUND AND USE THEREOF” (Chengdu Zenitar Biomedical Technology Co., Ltd., priority 2022, dated 2024).

How the values were obtained:
PARP2 = target: T1, PARP2 (Homo sapiens, UniProt Q9UGN5); experiment: Determination of PARP2 enzyme (histone-coated plate, Biotin-NAD+); format: biochemical
T1 construct: purchased BPS 80502
Method: • 1.2.1 Preparation of buffer solution: PBST: 1x PBS, 0.05% Tween-20; blocking solution: 1x PBS, 0.05% Tween-20, 5% BSA; reaction buffer solution: 50 mM HEPES (pH 7.5), 0.002% Tween-20, 0.1% BSA, 100 mM NaCl, 2mM DTT. • 1.2.2 Coating: A 100 ng/mL Histone coating solution was prepared by using 1x PBS, 25 uL of the coating solution was transferred to a 384-well reaction plate, and the reaction plate was coated overnight at 4°C. • 1.2.3 Washing: After the coating was completed, the coating solution was discarded, and the reaction plate was washed with the PBST solution by means of transferring 50uL of the PBST solution to the 384-well reaction plate, letting it stand for 5 min, discarding the washing solution, refilling the reaction plate, and repeating the washing process 3 times. Finally, the reaction plate was tapped dry and the next step of blocking was proceeded with. • 1.2.4 Blocking: 50 uL of the blocking solution was transferred to the 384-well reaction plate and set for 1 h. • 1.2.5 Washing: After the blocking was completed, the blocking solution was discarded, the reaction plate was washed 3 times with the PBST solution according to the method in Step 2, and the reaction plate was tapped dry. • 1.2.6 A 25/10× PARP2 solution was prepared, then 10 µL of the PARP2 solution was transferred to the 384-well reaction plate.

PARP5A = target: T2, PARP5A (Homo sapiens, UniProt O95271); experiment: Determination of PARP5A enzyme (histone-coated plate, Biotin-NAD+); format: biochemical
T2 construct: purchased BPS 80504
T2 sequence (O95271 1001-1327): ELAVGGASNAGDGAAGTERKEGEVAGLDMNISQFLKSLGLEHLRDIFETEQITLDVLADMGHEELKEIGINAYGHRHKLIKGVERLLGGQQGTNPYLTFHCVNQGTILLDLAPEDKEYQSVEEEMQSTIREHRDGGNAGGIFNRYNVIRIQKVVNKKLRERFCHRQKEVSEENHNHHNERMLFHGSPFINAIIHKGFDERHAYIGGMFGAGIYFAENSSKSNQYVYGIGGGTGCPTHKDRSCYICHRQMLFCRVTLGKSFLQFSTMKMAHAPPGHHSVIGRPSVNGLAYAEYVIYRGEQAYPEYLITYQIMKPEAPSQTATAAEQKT
Method: • 1.3.1 Preparation of buffer solution solution: PBST: 1x PBS, 0.05% Tween-20; blocking solution: 1x PBS, 0.05% Tween-20, 5% BSA; reaction buffer solution: 50 mM HEPES (pH 7.5), 0.002% Tween-20, 0.1% BSA, 100 mM NaCl, 2mM DTT. • 1.3.2 Coating: A 100 ng/mL Histone coating solution was prepared by using 1x PBS, 25 uL of the coating solution was transferred to a 384-well reaction plate, and the reaction plate was coated overnight at 4°C. • 1.3.3 Washing: After the coating was completed, the coating solution was discarded, and the reaction plate was washed with the PBST solution by means of transferring 50uL of the PBST solution to the 384-well reaction plate, letting it stand for 5 min, discarding the washing solution, refilling the reaction plate with the PBST solution, and repeating the washing process 3 times. Finally, the reaction plate was tapped dry and the next step of blocking was proceeded with. • 1.3.4 Blocking: 50 uL of the blocking solution was transferred to the 384-well reaction plate and set for 1 h. • 1.3.5 Washing: After the blocking was completed, the blocking solution was discarded, the reaction plate was washed 3 times with the PBST solution according to the method in Step 2, and the reaction plate was tapped dry. • 1.3.6 A 25/10× PARP5A solution was prepared, then 10 µL of the PARP5A solution was transferred to the 384-well reaction plate. For negative control wells, 10 µL of the reaction buffer solution instead was transferred, resulting in the final concentration of PARP5A of 10 nM. • 1.3.7 A 2,000x compound was prepared, 50 nL of the compound was transferred to with echo, 19.95 uL of the reaction buffer solution was added into the compound, mix well, and 5 uL of the mixed compound was transferred to the 384-well reaction plate. • 1.3.8 A 25/10x Biotin-NAD+ solution was prepared, 10uL of the Biotin-NAD+ solution was transferred to the 384-well reaction plate, resulting in a final Biotin-NAD+ concentration of 2uM, and incubated at room temperature for 60 min. • 1.3.9 Washing: After the reaction was completed, the reaction liquid was discarded. The reaction plate was washed 3 times with the PBST solution according to the method in Step 2, and the reaction plate was tapped dry. • 1.3.10 A Stre-HRP solution was prepared by means of diluting it with the blocking solution, 25uL of the Stre-HRP solution was transferred to the reaction plate, and incubated at room temperature for 1 h, resulting the final concentration of Stre-HRP of 0.1 µg/mL. • 1.3.11 Washing: The Stre-HRP solution was discarded, the reaction plate was washed 3 times with the PBST solution according to the method in Step 2, and the reaction plate was tapped dry. • 1.3.12 Color developing: Femto-ECL Substrate A, Femto-ECL Substrate B, and QuantaRed ADHP were mixed in a 50:50:1 ratio.

breast cancer MDA-MB-436 = system: breast cancer MDA-MB-436; design: species or system NOD/SCID mice; conditions: mouse, in vivo
gastric cancer PDX model = experiment: In-vivo pharmacodynamic study on PDX gastric cancer mice model; conditions: Fig. 3
Method: Experimental procedure: Tumor tissues from gastric cancer patients were used to establish a stable passaged tumor-bearing mice model. In this study, tumor fragments from mice that had been stably passaged three times were used for subcutaneous inoculation. Eight groups were divided for the experiment, with 6 mice in each group. The negative control group (Control) received normal saline at 0.2 mL per mice per administration, given orally once per day; the carboplatin control group (Carboplatin, Car) received 20 mg/kg at 0.2 mL per mice per administration, administered via intraperitoneal injection once every 7 days.

SUM14PT tumor cells = experiment: In-vivo pharmacodynamic study on subcutaneous xenograft tumor model of breast cancer SUM14PT; design: species or system nude mice; conditions: Fig. 4
Method: Experimental procedure: In this study, a mice model was established by subcutaneously inoculating SUM14PT tumor cells. Eight groups were divided for the experiment, with 6 mice in each group. The negative control group (Control) received normal saline at 0.2 mL per mice per administration, given orally once per day; the carboplatin control group (Carboplatin, Car) received 20 mg/kg at 0.2 mL per mice per administration, administered via intraperitoneal injection once every 7 days.

in vivo = conditions: male, SD, rat, po
Method: Experimental procedure: The compound, a small amount of DMSO and a sodium chloride injection were added to prepare the final solution for administration. The compound was orally administered to 6 male SD rats. […] The supernatant was collected and transferred into a sample vial for assay. Range of standard curve: 10 - 10,000 ng·mL^-1.

T1 sequence (Q9UGN5 whole entry): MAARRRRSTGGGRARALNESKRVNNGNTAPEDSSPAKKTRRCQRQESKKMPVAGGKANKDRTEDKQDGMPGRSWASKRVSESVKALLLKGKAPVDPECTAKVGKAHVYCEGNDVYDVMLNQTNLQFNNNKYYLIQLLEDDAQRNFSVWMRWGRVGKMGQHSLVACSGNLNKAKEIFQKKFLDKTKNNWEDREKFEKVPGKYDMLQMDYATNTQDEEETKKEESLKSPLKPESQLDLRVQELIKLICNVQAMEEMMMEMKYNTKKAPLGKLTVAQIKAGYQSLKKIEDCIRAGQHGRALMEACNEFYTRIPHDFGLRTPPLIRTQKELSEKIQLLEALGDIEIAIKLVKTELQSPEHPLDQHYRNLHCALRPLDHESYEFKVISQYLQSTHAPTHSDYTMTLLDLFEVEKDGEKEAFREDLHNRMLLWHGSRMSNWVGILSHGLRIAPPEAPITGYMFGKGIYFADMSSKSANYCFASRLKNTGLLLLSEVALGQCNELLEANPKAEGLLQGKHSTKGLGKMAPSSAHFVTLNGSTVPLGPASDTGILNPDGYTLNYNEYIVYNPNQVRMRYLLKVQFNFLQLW

Structure (SMILES): [2H]C([2H])([2H])C([2H])([2H])c1cc2ncc(CN3CC=C(c4ccc(C(=O)NC)nc4)CC3)cc2[nH]c1=O [Compound 6, 1'-((7-(ethyl-d5)-6-oxo-5,6-dihydro-1,5-naphthyridin-3-yl)methyl)-N-methyl-1',2',3',6'-tetrahy dro-[3,4'-bipyridine]-6-carboxamide]
- IC50 (PARP2): > 1000 nM
- IC50 (PARP5A): > 1000 nM
- anti-tumor efficacy in the model of large-volume tumors (breast cancer MDA-MB-436): complete regression of tumors
- rate of tumor regression compared to the compounds 1 and 21 (breast cancer MDA-MB-436): faster rate of tumor regression
- tumor growth in gastric cancer PDX model (gastric cancer PDX model; 3 mg/kg p.o once per day combined with carboplatin 20 mg/kg i.p once per 7 days): significantly inhibit tumor growth
- inhibitory effect on the gastric cancer PDX model (gastric cancer PDX model; 0.3, 1, 3 mg/kg p.o once per day combined with carboplatin 20 mg/kg i.p once per 7 days): dose-dependent inhibitory effect
- therapeutic efficacy in combination with carboplatin (SUM14PT tumor cells; 1 mg/kg orally once daily + carboplatin, versus Olaparib 100 mg/kg + carboplatin): better therapeutic efficacy than Olaparib
- anti-tumor efficacy, monotherapy (SUM14PT tumor cells; 0.3 and 1 mg/kg orally once daily, versus Olaparib 100 mg/kg orally once daily): better anti-tumor efficacy compared to Olaparib
- half-life (in vivo): 8.4 h
